{
  "source": "BindingDB's records for doi:10.1021/acs.jmedchem.8b01436",
  "about": "(University of New South Wales, 2019)",
  "note": "Peptide text beside a SMILES is read from it.",
  "data": [
    {"assay": "Inhibition of (2S,8S,11S,14S)-2-(4-aminobutyl)-14-(3-guanidinopropyl)-8-(4-hydroxybenzyl)-11-(hydroxymethyl)-4,7,10,13,16,32-hexaoxo-36-((3aS,4S,6aR)-2-oxohexahydro-1H-thieno[3,4-d]imidazol-4-yl)-19,22,25,28-tetraoxa-3,6,9,12,15,31-hexaazahexatriacontan-1-oic acid binding to human Hsp72 SBD expressed in Escherichia coli BL21 (DE3) by Western", "units": {"IC50": "µM"}, "values": [
      {"smiles": "N=C(N)NCCC[C@H](NC(=O)[C@H](CO)NC(=O)[C@H](Cc1ccc(O)cc1)NC(=O)CNC(=O)[C@@H](N)CCCCN)C(=O)N[C@@H](CCCCN)C(=O)O", "note": "(H-KGYSRK-OH)", "IC50": 248},
      {"smiles": "N=C(N)NCCC[C@H](NC(=O)[C@H](CO)NC(=O)[C@H](Cc1ccc(O)cc1)NC(=O)CNC(=O)[C@@H](N)CCCCN)C(=O)O", "note": "(H-KGYSR-OH)", "IC50": 87.3},
      {"smiles": "C[C@H](NC(=O)[C@H](CCCCN)NC(=O)[C@H](CCCNC(=N)N)NC(=O)[C@H](CO)NC(=O)[C@H](Cc1ccc(O)cc1)NC(=O)CNC(=O)[C@@H](N)CCCCN)C(=O)O", "note": "(H-KGYSRKA-OH)", "IC50": 70},
      {"smiles": "C[C@H](NC(=O)[C@H](C)NC(=O)[C@H](CCCCN)NC(=O)[C@H](CCCNC(=N)N)NC(=O)[C@H](CO)NC(=O)[C@H](Cc1ccc(O)cc1)NC(=O)CNC(=O)[C@@H](N)CCCCN)C(=O)O", "note": "(H-KGYSRKAA-OH)", "IC50": 6.43}
    ]}
  ]
}
